Measurements reported in patent publication US9840494B2, “Quinazoline derivative” (Tianjin Hemay Oncology Pharmaceutical Co., Ltd., priority 2013, dated 2017).
Marks after values point to notes of the source that are not given here.

Experiments:
[1] = Bioavailability assay in rats, Experiment IV (dimethylsulfonate); assay type: in vivo
Description: Experiment IV Bioavailability Assay for N-[4-(3-chloro-4-fluorophenylamino)-7-(2-methoxyethoxy)quinazolin-6-yl]-2-[1-(2-methoxyethyl)piperidin-4-ylidene]acetamide Dimethylsulfonate in Rats
12 SD rats (half of them were male and half of them were female, 7-10 weeks old, weighting 200-350 g) were purchased from Beijing Vital River Laboratory Animal Technology Co., Ltd., and reared in Animal House, GLP Center, Taiping Road No. 27 courtyard. Production License Number of Beijing Vital River Laboratory Animal Technology Co., Ltd. is SCXK (Beijing) 2009-0002.
Blood (about 0.5 ml) was drawn with glass capillary from the orbital venous plexus at […], 1 h, 2 h, 3 h, 4 h, 6 h, 8 h, 12 h, and 24 h after dosing to each group of animals according to the administration scheme, and put into a heparinized centrifuge tube. The tube was gently shaken up and down, then centrifuged at 3000 r/min for […] at 4° C. The plasma was separated. 50 μl of the plasma was pipetted into a centrifuge tube (5 ml), then 50% methanol aqueous solution (50 μl ) and thienorphine-D4 isotope (50 μl) as an internal standard were added thereto and vortexed. A solution of methanol:acetonitrile=1:3 (volume ratio) was added, vortexed for 30 s so as to mix thoroughly. The resulting mixture was centrifuged at 3000 r/min for 5 mM 500 μL of the supernatant was taken out, to which 500 μl of 20% methanol solution was added for serial dilution. The mixture was vortexed for 30 s so as to mix thoroughly. The mixture was centrifuged at 13000 r/min for 5 mM, and […], of the supernatant was injected for LC/MS/MS assay.
Liquid phase conditions: A: aqueous solution (5 mmol/L ammonium acetate, 0.2% formic acid), B: methanol; column temperature 25° C.; injection volume: 10 μL; gradient elution.
MS conditions: ion source: Turbo Ionspray (ESI+); detection mode: MRM; electrical parameters: compound 1: m/z 544.2-457.1, CE (collision energy): 36.5.
The main pharmacokinetic parameters and oral bioavailability results were calculated by using DAS2.0 (statistical moment).
The pharmacokinetic parameters of statistical moments (n=6) for a single intravenous injection of 5.0 mg/kg in rats
The pharmacokinetic parameters of statistical moments (n=6) for a single intragastric administration of 5.0 mg/kg in rats
Method for the calculation of bioavailability: F=(AUCig×Div)/(AUCiv×Dig)×100%
wherein D is dose; AUC: the area under the plasma drug concentration-time curve; ig represents intragastric administration; and iv represents intravenous injection administration.

[2] = system: A431 human epidermal carcinoma xenograft; assay: A431 human epidermal carcinoma xenograft model; assay type: in vivo, nude mice; details: for Tumor Weight (x ± S.D.) / Tumor Inhibitor Rate / Relative Tumor Volume (x ± S.D.) / T/C / Tumor Volume (x ± S.D.): A431 xenograft; for Tumor Inhibitor Rate: by tumor weight; for Relative Tumor Volume (x ± S.D.) / T/C / Tumor Volume (x ± S.D.): end of the assay
Method: Tumor cells were cultured in an incubator at 37° C. with 5% CO2 using MEM medium containing 10% inactivated fetal calf serum, 100 U/ml penicillin and 100 µg/ml streptomycin. The tumor cells in logarithmic growth phase were collected, adjusted to an appropriate density and injected subcutaneously into nude mice (0.2 ml per mouse). An xenograft model was established after a tumor was formed in the nude mice and passaged in vivo for more than three generations.
The above-mentioned tumor-bearing mice were sacrificed by cervical dislocation. The tumor was taken out and cut into small tumor pieces (about 2 mm×2 mm×2 mm) under sterile conditions. The small tumor pieces were inoculated subcutaneously into nude mice with a trocar. […] The animals in each group were subjected to intragastric administration once a day for 14 consecutive days. The day of grouping is assigned as day 0.
Tumor volume is calculated as: volume =0.5×long diameter×short diameter^2. The relative tumor volume (RTV) was calculated based on the measurements as: RTV=Vt/V0, wherein V0 is the tumor volume measured when the animals were grouped to be administrated (i.e., d0), and Vt is the tumor volume when each measurement was taken. Relative tumor proliferation rate T/C was calculated based on relative tumor volume, in which T is the mean value of the relative tumor volume of the treatment group, and C is the mean value of the relative tumor volume of the solvent control group. T/C was calculated as follows: T/C=TRTV/CRTV×100% (TRTV: RTV of the treatment group; CRTV:
RTV of the solvent control group) Inhibition rate (%)=(mean tumor weight of the solvent control group−mean tumor weight of the treatment group)/mean tumor weight of the solvent control group×100%. Percentage of body weight change=Wn/W0×100% (Wn: mean body weight of experimental animals in each group at day n, W0: mean body weight of experimental animals in each group at day 0).
One-Way ANOVA test was conducted in SPSS13.0, performing statistical analysis between groups.

[3] = SD rats, single intragastric administration of 5.0 mg/kg, n=6
[4] = SD rats, single intravenous injection of 5.0 mg/kg, n=6
[5] = both sexes, rat, plasma, po, SD rats, single intragastric administration of 5.0 mg/kg, n=6
[6] = both sexes, rat, plasma, SD rats, single intravenous injection of 5.0 mg/kg, n=6
[7] = A431 xenograft nude mice, 20, 40 and 80 mg/kg intragastric once a day for 14 days
[8] = 20 mg/kg intragastric once a day for 14 days
[9] = 40 mg/kg intragastric once a day for 14 days
[10] = 80 mg/kg intragastric once a day for 14 days

With `COCCOc1cc2ncnc(Nc3ccc(F)c(Cl)c3)c2cc1NC(=O)C=C1CCN(CCOC)CC1.CS(=O)(=O)O` [Compound 3, N-[4-(3-chloro-4-fluorophenylamino)-7-(2-methoxyethoxy)quinazolin-6-yl]-2-[1-(2-methoxyethyl)piperidin-4-ylidene]acetamide dimethylsulfonate] the “F (bioavailability)” value ([1]; SD rats, 5 mg/kg ig vs 5 mg/kg iv) was 57%, the CLz/F [1, 3] was 4.55 L/h/kg and the t½z [1, 3] was 5.83 h. It also gave a CLz [1, 4] of 2.63 L/h/kg, a t½z [1, 4] of 4.06 h and a bioavailability ([1]; both sexes, SD, rat, plasma, oral, 5 mg/kg, 5 mg/kg ig vs 5 mg/kg iv, read-out: F (bioavailability)) of 56.9%. The AUC(0-inf) [1, 5] was 902 ng·h/mL, the AUC(0-t) [1, 5] was 782 ng·h/mL and the Cmax [1, 5] was 75.2 ng/mL. It also gave a Tmax [1, 5] of 3.33 h, a Vd/F ([1]; both sexes, rat, plasma, po, SD rats, single intragastric administration of 5.0 mg/kg, n=6, read-out: Vz/F) of 36.9 L/kg and an AUC(0-inf) [1, 6] of 1460 ng·h/mL. The AUC(0-t) [1, 6] was 1370 ng·h/mL, the Cmax [1, 6] was 1220 ng/mL and the Tmax [1, 6] was 0.02 h. The Vd ([1]; both sexes, rat, plasma, SD rats, single intravenous injection of 5.0 mg/kg, n=6, read-out: Vz) was 15.2 L/kg, the “Body weights of the experimental animals” value [2, 7] was “not significantly reduced” and the “abnormality in the experimental animals” value [2, 7] was “no significant abnormality was observed”. The “Tumor Weight (x ± S.D.)” value [2, 8] was 0.232 ± 0.312 g, the “Tumor Inhibitor Rate” value [2, 8] was 68.6% and the “Relative Tumor Volume (x ± S.D.)” value [2, 8] was 2.3 ± 1.5. For the same compound, the T/C [2, 8] was 30.6%, the “Tumor Volume (x ± S.D.)” value [2, 8] was 424.9 ± 434.0*** mm^3 and the “Tumor Weight (x ± S.D.)” value [2, 9] was 0.199 ± 0.153 g. For the same compound, the “Tumor Inhibitor Rate” value [2, 9] was 73.2%, the “Relative Tumor Volume (x ± S.D.)” value [2, 9] was 2.8 ± 2.3 and the T/C [2, 9] was 37.7%. For the same compound, the “Tumor Volume (x ± S.D.)” value [2, 9] was 418.9 ± 284.7*** mm^3, the “Tumor Weight (x ± S.D.)” value [2, 10] was 0.107 ± 0.126 g and the “Tumor Inhibitor Rate” value [2, 10] was 85.6%. The “Relative Tumor Volume (x ± S.D.)” value [2, 10] was 1.4 ± 0.9, the T/C [2, 10] was 19.1% and the “Tumor Volume (x ± S.D.)” value [2, 10] was 254.7 ± 228.2*** mm^3.
